ChEMBL document CHEMBL1201862, “PubChem BioAssay data set” (2004)
Where “and” joins values, the source holds several entries; their conditions need not be identical. Equal entries are not always repeated.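 The compound was tested at five concentrations on cells cultured in 96-well plates, with a 48-hour exposure period. Here, GI50 denotes the concentration required for 50% inhibition of growth.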 Calls of active or inactive are those of the source. No stated cut-off is given here; in the data, active = GI50 up to about 1.1 µM and inactive = higher.

Columns and labels:
Assay in all cases: NCI-60 cell line screen, 48 h
OVCAR-3 = tested on: OVCAR-3
OVCAR-8 = tested on: OVCAR-8
M14 = tested on: M14
HCT-116 = tested on: HCT-116
MOLT-4 = tested on: MOLT-4
NCI-H226 = tested on: NCI-H226
MDA-MB-435 = tested on: MDA-MB-435
SNB-75 = tested on: SNB-75
UO-31 = tested on: UO-31
UACC-62 = tested on: UACC-62
HCT-15 = tested on: HCT-15
PC-3 = tested on: PC-3
HOP-92 = tested on: HOP-92
TK-10 = tested on: TK-10
RXF 393 = tested on: RXF 393
SK-MEL-28 = tested on: SK-MEL-28
MDA-MB-231 = tested on: MDA-MB-231
CCRF-CEM = tested on: CCRF-CEM
ACHN = tested on: ACHN
NCI/ADR-RES = tested on: NCI/ADR-RES

| SMILES | GI50 (OVCAR-3) | GI50 (OVCAR-8) | GI50 (M14) | GI50 (HCT-116) | GI50 (MOLT-4) | GI50 (NCI-H226) | GI50 (MDA-MB-435) | GI50 (SNB-75) | GI50 (UO-31) | GI50 (UACC-62) | GI50 (HCT-15) | GI50 (PC-3) | GI50 (HOP-92) | GI50 (TK-10) | GI50 (RXF 393) | GI50 (SK-MEL-28) | GI50 (MDA-MB-231) | GI50 (CCRF-CEM) | GI50 (ACHN) | GI50 (NCI/ADR-RES) |
| --- | --- | --- | --- | --- | --- | --- | --- | --- | --- | --- | --- | --- | --- | --- | --- | --- | --- | --- | --- | --- |
| CCOC(=O)c1nc2c(Cl)c3ncccc3cc2[nH]c1=O | 26.2 µM (inactive) | 29.9 µM (inactive) | 27.9 µM (inactive) | 31.8 µM (inactive) | 10.4 µM (inactive) | 6.71 µM (inactive) | 32.1 µM (inactive) | 17.2 µM (inactive) | 55.5 µM (inactive) | 14.6 µM (inactive) | 19 µM | 30.9 µM (inactive) | 40.6 µM (inactive) | > 100 µM (inactive) | 55 µM (inactive) | 59.3 µM (inactive) | 18.1 µM (inactive) | 17.5 µM (inactive) | 95.7 µM (inactive) | 30.1 µM (inactive) |
| COC1OC(C(=O)CP(=O)(OC)OC)C(OCc2ccccc2)C(OCc2ccccc2)C1OCc1ccccc1 (stereo not given) | 15.6 µM (inactive) and 15.1 µM (inactive) | 19.8 µM (inactive) and 17.9 µM (inactive) | 15.3 µM (inactive) and 16.6 µM (inactive) | 16.6 µM (inactive) and 15.5 µM (inactive) | 13 µM (inactive) and 20.8 µM (inactive) | 19.2 µM (inactive) and 18.8 µM (inactive) | 18.7 µM (inactive) and 17 µM (inactive) | 14.6 µM (inactive) and 16 µM (inactive) | 11.2 µM (inactive) and 17.1 µM (inactive) | 13.7 µM (inactive) and 14.8 µM (inactive) | 15.5 µM and 17.7 µM | 15.4 µM (inactive) and 14.2 µM (inactive) | 17.9 µM (inactive) and 19.1 µM (inactive) | 17.1 µM (inactive) and 18.8 µM (inactive) | 14.8 µM (inactive) and 12.1 µM (inactive) | 16.9 µM (inactive) and 21 µM (inactive) | 15.9 µM (inactive) and 16.7 µM (inactive) | 33.1 µM (inactive) and 25.1 µM (inactive) | 16.4 µM (inactive) and 15.9 µM (inactive) | 18.9 µM (inactive) and 16.4 µM (inactive) |
| CC[P+]1(c2ccccc2)[C@@H](C)CC[C@@H]1C | 84.1 µM (inactive) | > 100 µM (inactive) | > 100 µM (inactive) | > 100 µM (inactive) | > 100 µM (inactive) | > 100 µM (inactive) | > 100 µM (inactive) | > 100 µM (inactive) | > 100 µM (inactive) | > 100 µM (inactive) | > 100 µM | 61.9 µM (inactive) | 39.1 µM (inactive) | > 100 µM (inactive) | > 100 µM (inactive) | > 100 µM (inactive) | > 100 µM (inactive) | > 100 µM (inactive) | > 100 µM (inactive) | > 100 µM (inactive) |
| COS(C)(=O)=O [METHANESULFONIC ACID METHYL ESTER] | > 2 µM (inactive) | > 2 µM (inactive) | > 2 µM (inactive) | > 2 µM (inactive) | > 2 µM (inactive) | > 2 µM (inactive) | > 2 µM (inactive) | > 2 µM (inactive) | > 2 µM (inactive) | > 2 µM (inactive) | > 2 µM | > 2 µM (inactive) | > 2 µM (inactive) | > 2 µM (inactive) | > 2 µM (inactive) | > 2 µM (inactive) | > 2 µM (inactive) | > 2 µM (inactive) | > 2 µM (inactive) | > 2 µM (inactive) |
| Oc1c(C2=NNC(c3cccs3)C2)ccc2ccccc12 (stereo not given) | 18 µM (inactive) | 27.5 µM (inactive) | 14.4 µM (inactive) | 16.4 µM (inactive) | 10.1 µM (inactive) | 24.9 µM (inactive) | 18.3 µM (inactive) | 21.3 µM (inactive) | 32.4 µM (inactive) | 15.6 µM (inactive) | 18.2 µM | 27 µM (inactive) | 18.2 µM (inactive) | 28.1 µM (inactive) | 42.6 µM (inactive) | 36 µM (inactive) | 26.1 µM (inactive) | 11.1 µM (inactive) | 27.7 µM (inactive) | 21.9 µM (inactive) |
| C=C(C)C1CCC2(C)C1CCC1(C)C2CCC2C3(C)C4OC(OC4=O)C(C)(C)C3CCC21C (stereo not given) | > 100 µM (inactive) | > 100 µM (inactive) | > 100 µM (inactive) | > 100 µM (inactive) | > 100 µM (inactive) | > 100 µM (inactive) | > 100 µM (inactive) | > 100 µM (inactive) | > 100 µM (inactive) | > 100 µM (inactive) | > 100 µM | > 100 µM (inactive) | > 100 µM (inactive) | > 100 µM (inactive) | > 100 µM (inactive) | > 100 µM (inactive) | > 100 µM (inactive) | 80.4 µM (inactive) | > 100 µM (inactive) | > 100 µM (inactive) |
| CC(C)=CC1CC(C)C2(CCC3(C)CC4C(C(=O)CC4(C)O)/C(C=O)=C\CC32)O1 (stereo not given) | 0.0224 µM (active) | 0.0432 µM (active) | 0.134 µM (active) | 0.0407 µM (active) | < 0.0153 µM (active) | 0.0689 µM (active) | 0.0617 µM (active) | 0.142 µM (active) | 0.0355 µM (active) | 0.169 µM (active) | 0.0243 µM | 0.038 µM (active) | 0.0703 µM (active) | 0.0235 µM (active) | 0.0373 µM (active) | 0.104 µM (active) | 0.0968 µM (active) | 0.0179 µM (active) | 0.0324 µM (active) | 0.11 µM (active) |
| CC(=O)c1cc2c(s1)C(=O)c1ccsc1C2=O | 0.22 µM (active) | 0.373 µM (active) | 0.28 µM (active) | 0.292 µM (active) | 0.438 µM (active) | 1.6 µM (inactive) | 0.0713 µM (active) | 0.192 µM (active) | 0.243 µM (active) | 0.255 µM (active) | 0.179 µM | 0.458 µM (active) | 1.56 µM (inactive) | 1.97 µM (inactive) | 0.244 µM (active) | 0.185 µM (active) | 0.327 µM (active) | 0.335 µM (active) | 0.215 µM (active) | 0.378 µM (active) |
| COc1ccc(C(C#N)NC23CC4CC(CC(C4)C2)C3)cc1 (stereo not given) | > 100 µM (inactive) | > 100 µM (inactive) | > 100 µM (inactive) | > 100 µM (inactive) | > 100 µM (inactive) | > 100 µM (inactive) | > 100 µM (inactive) | > 100 µM (inactive) | > 100 µM (inactive) | > 100 µM (inactive) | > 100 µM | > 100 µM (inactive) | 67.9 µM (inactive) | > 100 µM (inactive) | > 100 µM (inactive) | > 100 µM (inactive) | > 100 µM (inactive) | > 100 µM (inactive) | > 100 µM (inactive) | > 100 µM (inactive) |
| N#CCCN(CCN(CCN(C(=O)Nc1ccccc1)c1ccccc1)C(=O)Nc1ccccc1)C(=O)Nc1ccccc1 | > 100 µM (inactive) | > 100 µM (inactive) | > 100 µM (inactive) | > 100 µM (inactive) | 4.43 µM (inactive) | > 100 µM (inactive) | 20.7 µM (inactive) | 67.6 µM (inactive) | > 100 µM (inactive) | > 100 µM (inactive) | > 100 µM | 6.85 µM (inactive) | 15.2 µM (inactive) | > 100 µM (inactive) | > 100 µM (inactive) | > 100 µM (inactive) | > 100 µM (inactive) | 1.89 µM (inactive) | 40.1 µM (inactive) | > 100 µM (inactive) |
| Cc1cs/c(=N\C(P(=O)(O)O)P(=O)(O)O)n1C | > 100 µM (inactive) | > 100 µM (inactive) | > 100 µM (inactive) | > 100 µM (inactive) | > 100 µM (inactive) | > 100 µM (inactive) | > 100 µM (inactive) | > 100 µM (inactive) | > 100 µM (inactive) | > 100 µM (inactive) | > 100 µM | > 100 µM (inactive) | 42.9 µM (inactive) | > 100 µM (inactive) | > 100 µM (inactive) | > 100 µM (inactive) | > 100 µM (inactive) | > 100 µM (inactive) | > 100 µM (inactive) | > 100 µM (inactive) |
| CCOC(=O)/C(C#N)=C1\c2c([nH]c(=S)[nH]c2=O)Oc2ccc3ccccc3c21 | 23.7 µM (inactive) | 54.7 µM (inactive) | 43.8 µM (inactive) | 67.3 µM (inactive) | 11.2 µM (inactive) | 18 µM (inactive) | 43.2 µM (inactive) | 23.3 µM (inactive) | 20 µM (inactive) | 24.4 µM (inactive) | 71.6 µM | 34 µM (inactive) | 43.5 µM (inactive) | 39.9 µM (inactive) | 36.2 µM (inactive) | 1.46 µM (inactive) | 24.8 µM (inactive) | 1.55 µM (inactive) | 28.8 µM (inactive) | 59.3 µM (inactive) |
